Like-named read-outs stand apart in the source and are kept apart here.
What was measured:
WDR5 [1] = target: T1, WDR5 (Homo sapiens, UniProt P61964); assay: Surface Plasmon Resonance (SPR) assay; format: binding; parameters: Full length WDR5 with an N-terminal His tag and C-terminal AviTag; His tag (N); made in house; host or cells: E. coli
Method: Exemplary compounds of the application were dissolved in 100% DMSO at 10 mM, assayed fresh, and then stored at −20° C. for repeat studies and other experiments. Full length WDR5 with an N-terminal His tag and C-terminal AviTag (Avidity Inc.) was expressed in E. coli with coexpression of BirA to biotin label the protein in vivo. Purification was via Ni-NTA.
SPR studies were performed using a Biacore™ T200 instrument (GE Health Sciences Inc.). Biotinylated WDR5 protein (approximately 3000RU) was stably captured to streptavidin coupled SA chips according to the manufacture's protocol (GE Health Sciences Inc.). The running buffer used was HBS-EP (20 mM Hepes pH 7.4, 150 mM NaCl, 3 mM EDTA, 0.05% P-20) plus 5% DMSO with a flow rate of 40 μl/min. For SPR analysis, 5 different concentrations of each exemplary compound of the application were sprayed into 96 or 384 well plates using an HP D300 digital dispenser. The concentration ranged from about 195 nM to about 12 nM in a two-fold series. […] Curve fitting and KD calculations were performed with the Biacore T200 Evalutation software (GE Health Sciences Inc).

WDR5 [2] = target: T1, WDR5; assay: Fluorescence Polarization (FP) binding assay
Method: H3 (1-15) ([…]), and 9-Ala-FAM ((Ac)-[…]-(Ahx-Ahx)-K(5,6-FAM)) (where Ahx represents 6 amino hexanoic acid linkers) peptides for WDR5 were synthesized, N-terminal-labeled with isothiocyanate-fluorescein, and purified by Tufts University Core Services (Boston, Mass.). Compound binding assays were performed at a constant labeled peptide concentration of 30 or 20 nM for H3 (1-15) and 9-Ala-FAM respectively. WDR5 concentrations of 0.3 μM for H3 (1-15) and 0.05 μM for 9-Ala-FAM were used. For both the H3 (1-15) and 9-Ala-FAM peptides, 80 mM sodium phosphate buffer (pH 6.5), 20 mM KCl, and 0.008% Triton X-100 was used. For the H3 (1-15) peptide, FP assays were measured in 10 μl aliquots in 384-well Axygen plates using a Synergy 4 microplate reader (BioTek) with an excitation wavelength of 485 nm and emission wavelength of 528 nm. For the 9-Ala-FAM peptide, FP assays were measured in 125 μl aliquots in 96 well Microfluor plates using a ViewLux instrument (Perkin Elmer) with an excitation wavelength of 480 nm and emission wavelength of 540 nm. To determine Kdsp values, the data were fit to a hyperbolic function using Sigma Plot software (Systat Software). The Kdisp values represent the average of quadruplicate measurements.

[3] = Table 2, effect of difluoro substitution, read-out: KD (SPR)

| SMILES | Kd (WDR5 [1]; read-out: SPR Kd) [nM] | IC50 (WDR5 [2]) [nM] | Kd (WDR5 [1]; [3]) [nM] |
| --- | --- | --- | --- |
| C[C@@H]1CN(c2cc(F)c(C3=CCCN(c4ncccn4)C3)c(F)c2NC(=O)c2c[nH]c(=O)cc2C(F)(F)F)C[C@H](C)N1C [Example 15, N-(2,4-difluoro-3-(1-(pyrimidin-2-yl)-1,2,5,6-tetrahydropyridin-3-yl)-6-((3S,5R)-3,4,5-trimethylpiperazin-1-yl)phenyl)-6-oxo-4-(trifluoromethyl)-1,6-dihydropyridine-3-carboxamide] | 1.69 | 21.1 |  |
| C[C@@H]1CN(c2ncc(-c3ccc(N4C[C@@H](C)N(C)[C@@H](C)C4)c(NC(=O)c4c[nH]c(=O)cc4C(F)(F)F)c3F)cn2)C[C@H](C)O1 [reference compound] |  |  | 1.8 |
| C[C@@H]1CN(c2cc(F)c(-c3ccc(N4CCOCC4)cc3)c(F)c2NC(=O)c2c[nH]c(=O)cc2C(F)(F)F)C[C@H](C)N1C [Example 5, N-(2,6-difluoro-4′-morpholino-4-((3S,5R)-3,4,5-trimethylpiperazin-1-yl)-[1,1′-biphenyl]-3-yl)-6-oxo-4-(trifluoromethyl)-1,6-dihydropyridine-3-carboxamide] | 3.55 | 32.2 |  |
| C[C@@H]1CN(c2cc(F)c(-c3cnc(N4CCO[C@@H](C)C4)nc3)c(F)c2NC(=O)c2cn(C)c(=O)cc2C(F)(F)F)C[C@H](C)N1C [Example 12, N-(2,4-difluoro-3-(2-((S)-2-methylmorpholino)pyrimidin-5-yl)-6-((3S,5R)-3,4,5-trimethylpiperazin-1-yl)phenyl)-1-methyl-6-oxo-4-(trifluoromethyl)-1,6-dihydropyridine-3-carboxamide formic Acid] | 1.42 | 24.6 |  |
| C[C@@H]1CN(c2cc(F)c(C3=CCCN(C(=O)OC4(C)CCC4)C3)c(F)c2NC(=O)c2c[nH]c(=O)cc2C(F)(F)F)C[C@H](C)N1C [Example 14, 1-Methylcyclobutyl 5-(2,6-difluoro-3-(6-oxo-4-(trifluoromethyl)-1,6-dihydropyridine-3-carboxamido)-4-((3S,5R)-3,4,5-trimethylpiperazin-1-yl)phenyl)-3,6-dihydropyridine-1(2H)-carboxylate] | 1.88 | 10.2 |  |
| CC(C)OC(=O)N1CCC=C(c2c(F)cc(N3C[C@@H](C)N(C)[C@@H](C)C3)c(NC(=O)c3c[nH]c(=O)cc3C(F)F)c2F)C1 [Example 23, Isopropyl 5-(3-(4-(difluoromethyl)-6-oxo-1,6-dihydropyridine-3-carboxamido)-2,6-difluoro-4-((3S,5R)-3,4,5-trimethylpiperazin-1-yl)phenyl)-3,6-dihydropyridine-1(2H)-carboxylate] | 2.83 | 31.4 |  |
| C[C@@H]1CN(c2cc(F)c(-c3cnc(N4CCO[C@@H](C)C4)nc3)c(F)c2NC(=O)c2ccc(F)cc2C(F)(F)F)C[C@H](C)N1C [Example 16, N-(2,4-difluoro-3-(2-((S)-2-methylmorpholino)pyrimidin-5-yl)-6-((3S,5R)-3,4,5-trimethylpiperazin-1-yl)phenyl)-4-fluoro-2-(trifluoromethyl)benzamide formic acid] | 1.22 | 6.99 |  |
| C[C@@H]1CN(c2ncc(-c3ccc(N4C[C@@H](C)N(C)[C@@H](C)C4)c(NC(=O)c4c[nH]c(=O)cc4C(F)(F)F)c3)cn2)C[C@H](C)O1 [reference compound] |  |  | 2.9 |
| C[C@@H]1CN(c2cc(F)c(C3=CCCN(C(=O)C(C)(C)C)C3)c(F)c2NC(=O)c2c[nH]c(=O)cc2C(F)(F)F)C[C@H](C)N1C [Example 19, N-(2,4-difluoro-3-(1-pivaloyl-1,2,5,6-tetrahydropyridin-3-yl)-6-((3S,5R)-3,4,5-trimethylpiperazin-1-yl)phenyl)-6-oxo-4-(trifluoromethyl)-1,6-dihydropyridine-3-carboxamide] | 5.31 | 31.6 |  |
| COCCOc1ccc(-c2c(F)cc(N3C[C@@H](C)N(C)[C@@H](C)C3)c(NC(=O)c3c[nH]c(=O)cc3C(F)(F)F)c2F)cn1 [Example 6, N-(2,4-difluoro-3-(6-(2-methoxyethoxy)pyridin-3-yl)-6-((3S,5R)-3,4,5-trimethylpiperazin-1-yl)phenyl)-6-oxo-4-(trifluoromethyl)-1,6-dihydropyridine-3-carboxamide] | 2.83 | 32.9 |  |
| C[C@@H]1CN(c2cc(F)c(-c3ccc(N4CCOCC4)nc3)c(F)c2NC(=O)c2c[nH]c(=O)cc2C(F)(F)F)C[C@H](C)N1C [Example 4, N-(2,4-difluoro-3-(6-morpholinopyridin-3-yl)-6-((3S,5R)-3,4,5-trimethylpiperazin-1-yl)phenyl)-6-oxo-4-(trifluoromethyl)-1,6-dihydropyridine-3-carboxamide] | 2.02 | 31.8 |  |
| C[C@@H]1CN(c2cc(F)c(C3=CCCN(c4ncccn4)C3)c(F)c2NC(=O)c2c[nH]c(=O)cc2C(F)F)C[C@H](C)N1C [Example 21, N-(2,4-difluoro-3-(1-(pyrimidin-2-yl)-1,2,5,6-tetrahydropyridin-3-yl)-6-((3S,5R)-3,4,5-trimethylpiperazin-1-yl)phenyl)-4-(difluoromethyl)-6-oxo-1,6-dihydropyridine-3-carboxamide] | 4.5 | 37.1 |  |
| C[C@@H]1CN(c2ncc(-c3c(F)cc(N4C[C@@H](C)N(C)[C@@H](C)C4)c(NC(=O)c4ccc(F)cc4C(F)(F)F)c3F)cn2)CCO1 [Example 18, N-(2,4-difluoro-3-(2-((R)-2-methylmorpholino)pyrimidin-5-yl)-6-((3S,5R)-3,4,5-trimethylpiperazin-1-yl)phenyl)-4-fluoro-2-(trifluoromethyl)benzamide formic acid] | 1.71 | 11 |  |
| C[C@@H]1CN(c2ncc(-c3cc(F)c(N4C[C@@H](C)N(C)[C@@H](C)C4)c(NC(=O)c4c[nH]c(=O)cc4C(F)(F)F)c3)cn2)C[C@H](C)O1 [reference compound] |  |  | 48 |
| C[C@@H]1CN(c2ncc(-c3c(F)cc(N4C[C@@H](C)N(C)[C@@H](C)C4)c(NC(=O)c4cn(C)c(=O)cc4C(F)(F)F)c3F)cn2)CCO1 [Example 17, N-(2,4-difluoro-3-(2-((R)-2-methylmorpholino)pyrimidin-5-yl)-6-((3S,5R)-3,4,5-trimethylpiperazin-1-yl)phenyl)-1-methyl-6-oxo-4-(trifluoromethyl)-1,6-dihydropyridine-3-carboxamide formic acid] | 1.75 | 10.1 |  |
| C[C@@H]1CN(c2cc(F)c(-c3ccc(OCC4CC4)cc3)c(F)c2NC(=O)c2c[nH]c(=O)cc2C(F)(F)F)C[C@H](C)N1C [Example 7, N-(4′-(cyclopropylmethoxy)-2,6-difluoro-4-((3S,5R)-3,4,5-trimethylpiperazin-1-yl)-[1,1′-biphenyl]-3-yl)-6-oxo-4-(trifluoromethyl)-1,6-dihydropyridine-3-carboxamide] |  | 17.9 |  |
| C[C@@H]1CN(c2cc(F)c(-c3ccc(OCC4CC4)nc3)c(F)c2NC(=O)c2c[nH]c(=O)cc2C(F)(F)F)C[C@H](C)N1C [Example 1, N-(3-(6-(cycloproylmethoxy)pyridin-3-yl)-2,4-difluoro-6-((3S,5R)-3,4,5-trimethylpiperazin-1-yl)phenyl)-6-oxo-4-(trifluoromethyl)-1,6-dihydropyridine-3-carboxamide] | 0.59 |  |  |
